According to patent US20140205681A1, “HYDROGEN-BOND SURROGATE PEPTIDES AND PEPTIDOMIMETICS FOR p53 REACTIVATION” (New York University, priority 2013, published 2014):

Columns and labels:
[1] = system: p53; assay: p53 transcriptional activity (Cignal p53 Firefly/Renilla luciferase reporter); assay type: cell-based, human; conditions: 24 hours; for p53 activity, increase: HPV-positive UMSCC47 cells, vs vehicle
Description: Cells were transfected with 100 ng of Cignal p53 reporter (SABiosciences, Valencia, Calif.) using Lipofectamine 2000. Cignal p53 reporter contains tandem repeats of the p53 consensus transcriptional response element. After 48 hours, cells were washed with cold PBS, lysed in passive lysis buffer (Promega), and measured for Firefly/Renilla dual luciferase activities in a luminometer using the Dual-Light System (Applied Biosystems, Foster City, Calif.). […] to control for transfection efficiency. A modification to the protocol was used for compound treatment. UMSCC47 cells were transfected with 100 ng of Cignal p53 reporter. After 24 hours, cells were treated with vehicle, CH1iB (10 μM), cis-platinum (10 μM), or combination of CH1iB (10 μM) and cis-platinum (10 μM) and measured for Firefly/Renilla dual luciferase activities 24 hours post-treatment.

[2] = system: UMSCC47 cells; assay: Cell proliferation (MTT); assay type: cell-based, human; conditions: UMSCC47 cells; for effect on anti-proliferative efficacy of cis-platinum: 10 μM with cis-platinum 10 μM; for cell proliferation, single-agent: 10 μM, 24-72 hours
Description: (§1) Cell proliferation was assessed using the MTT reagent (Roche Molecular Biochemicals, Nutley, N.J.) to detect metabolic active cells. Absorbance was measured at 570 nm in the Spectra Max 190 ELISA reader (Molecular Devices, Sunnyvale, Calif.) after overnight incubation. For clonogenic survival, 200 cells per well were plated in complete growth media and allowed to grow until visible colonies were formed (14 days). Cell colonies were fixed with cold methanol, stained with 0.25% crystal violet in 25% methanol, washed, and air dried. For apoptosis, cells were harvested, washed with cold PBS, and co-stained with Annexin V and propidium iodide according to the manufacturer's protocol (ApoAlert Annexin V-FITC Apoptosis Kit; Clontech). Apoptotic cells were analyzed using BD FACS Calibur (BD Biosciences Corporation, Franklin Lakes, N.J.) at The Ohio State University Comprehensive Cancer Center Analytical Cytometry Core.

[3] = system: IMR90 (human normal fibroblasts); assay: Cell proliferation (MTT); assay type: cell-based
Description: as §1

[4] = system: p300, p53, p21, miR-34a, miR-200c; assay: Quantitative real-time PCR of p300, p53, p21, miR-34a and miR-200c expression; assay type: cell-based, human; conditions: 10 μM, 24 hours
Description: Cells were extracted for total RNA using the TRIzol® reagent (Invitrogen) or TaqMan PreAmp Cells-to-CT kit (Applied Biosystems). Expression of p300, p53, p21, miR-34a and miR-200c were determined using the Applied Biosystems 7900HT Fast Real-Time PCR System with validated TaqMan gene expression assays (Applied Biosystems). p53, p300, and p21 expression were normalized to GADPH and miR-34a and miR-200c expression were normalized to RNU44 using the ΔΔCt method.

[5] = system: UMSCC47 cells; assay: Tumorsphere formation; assay type: cell-based, human; conditions: UMSCC47 cells, 10 μM, 7 days, vs vehicle
Description: Cells were harvested and seeded in a serum-free defined medium consisting of KSF medium supplemented with epidermal growth factor, basic fibroblast growth factor, insulin, and hydrocortisone in low-attachment plates (Corning Incorporated, Corning, N.Y.) for tumorspheres. Tumorsphere formation efficiency was calculated as the number of tumorspheres ([…] in diameter) formed in 7 days divided by the original number of cells seeded. Tumorsphere diameter was measured using NIS-Elements software.

[6] = molecular target: T1, HPV16 E6-p300 (Homo sapiens, UniProt Q09472); assay: Immunoprecipitation of HPV16 E6-p300 association; assay type: cell-based; conditions: UMSCC47 cells, 10 μM, 24 hours
T1 construct: Cell lysates were extracted, immunoprecipitated with anti-p300 antibody, and immunoblotted with anti-E6 antibody; endogenous in cells; host or cells: UMSCC47 (HPV16-positive HNSCC)
T1 sequence (Q09472 whole entry): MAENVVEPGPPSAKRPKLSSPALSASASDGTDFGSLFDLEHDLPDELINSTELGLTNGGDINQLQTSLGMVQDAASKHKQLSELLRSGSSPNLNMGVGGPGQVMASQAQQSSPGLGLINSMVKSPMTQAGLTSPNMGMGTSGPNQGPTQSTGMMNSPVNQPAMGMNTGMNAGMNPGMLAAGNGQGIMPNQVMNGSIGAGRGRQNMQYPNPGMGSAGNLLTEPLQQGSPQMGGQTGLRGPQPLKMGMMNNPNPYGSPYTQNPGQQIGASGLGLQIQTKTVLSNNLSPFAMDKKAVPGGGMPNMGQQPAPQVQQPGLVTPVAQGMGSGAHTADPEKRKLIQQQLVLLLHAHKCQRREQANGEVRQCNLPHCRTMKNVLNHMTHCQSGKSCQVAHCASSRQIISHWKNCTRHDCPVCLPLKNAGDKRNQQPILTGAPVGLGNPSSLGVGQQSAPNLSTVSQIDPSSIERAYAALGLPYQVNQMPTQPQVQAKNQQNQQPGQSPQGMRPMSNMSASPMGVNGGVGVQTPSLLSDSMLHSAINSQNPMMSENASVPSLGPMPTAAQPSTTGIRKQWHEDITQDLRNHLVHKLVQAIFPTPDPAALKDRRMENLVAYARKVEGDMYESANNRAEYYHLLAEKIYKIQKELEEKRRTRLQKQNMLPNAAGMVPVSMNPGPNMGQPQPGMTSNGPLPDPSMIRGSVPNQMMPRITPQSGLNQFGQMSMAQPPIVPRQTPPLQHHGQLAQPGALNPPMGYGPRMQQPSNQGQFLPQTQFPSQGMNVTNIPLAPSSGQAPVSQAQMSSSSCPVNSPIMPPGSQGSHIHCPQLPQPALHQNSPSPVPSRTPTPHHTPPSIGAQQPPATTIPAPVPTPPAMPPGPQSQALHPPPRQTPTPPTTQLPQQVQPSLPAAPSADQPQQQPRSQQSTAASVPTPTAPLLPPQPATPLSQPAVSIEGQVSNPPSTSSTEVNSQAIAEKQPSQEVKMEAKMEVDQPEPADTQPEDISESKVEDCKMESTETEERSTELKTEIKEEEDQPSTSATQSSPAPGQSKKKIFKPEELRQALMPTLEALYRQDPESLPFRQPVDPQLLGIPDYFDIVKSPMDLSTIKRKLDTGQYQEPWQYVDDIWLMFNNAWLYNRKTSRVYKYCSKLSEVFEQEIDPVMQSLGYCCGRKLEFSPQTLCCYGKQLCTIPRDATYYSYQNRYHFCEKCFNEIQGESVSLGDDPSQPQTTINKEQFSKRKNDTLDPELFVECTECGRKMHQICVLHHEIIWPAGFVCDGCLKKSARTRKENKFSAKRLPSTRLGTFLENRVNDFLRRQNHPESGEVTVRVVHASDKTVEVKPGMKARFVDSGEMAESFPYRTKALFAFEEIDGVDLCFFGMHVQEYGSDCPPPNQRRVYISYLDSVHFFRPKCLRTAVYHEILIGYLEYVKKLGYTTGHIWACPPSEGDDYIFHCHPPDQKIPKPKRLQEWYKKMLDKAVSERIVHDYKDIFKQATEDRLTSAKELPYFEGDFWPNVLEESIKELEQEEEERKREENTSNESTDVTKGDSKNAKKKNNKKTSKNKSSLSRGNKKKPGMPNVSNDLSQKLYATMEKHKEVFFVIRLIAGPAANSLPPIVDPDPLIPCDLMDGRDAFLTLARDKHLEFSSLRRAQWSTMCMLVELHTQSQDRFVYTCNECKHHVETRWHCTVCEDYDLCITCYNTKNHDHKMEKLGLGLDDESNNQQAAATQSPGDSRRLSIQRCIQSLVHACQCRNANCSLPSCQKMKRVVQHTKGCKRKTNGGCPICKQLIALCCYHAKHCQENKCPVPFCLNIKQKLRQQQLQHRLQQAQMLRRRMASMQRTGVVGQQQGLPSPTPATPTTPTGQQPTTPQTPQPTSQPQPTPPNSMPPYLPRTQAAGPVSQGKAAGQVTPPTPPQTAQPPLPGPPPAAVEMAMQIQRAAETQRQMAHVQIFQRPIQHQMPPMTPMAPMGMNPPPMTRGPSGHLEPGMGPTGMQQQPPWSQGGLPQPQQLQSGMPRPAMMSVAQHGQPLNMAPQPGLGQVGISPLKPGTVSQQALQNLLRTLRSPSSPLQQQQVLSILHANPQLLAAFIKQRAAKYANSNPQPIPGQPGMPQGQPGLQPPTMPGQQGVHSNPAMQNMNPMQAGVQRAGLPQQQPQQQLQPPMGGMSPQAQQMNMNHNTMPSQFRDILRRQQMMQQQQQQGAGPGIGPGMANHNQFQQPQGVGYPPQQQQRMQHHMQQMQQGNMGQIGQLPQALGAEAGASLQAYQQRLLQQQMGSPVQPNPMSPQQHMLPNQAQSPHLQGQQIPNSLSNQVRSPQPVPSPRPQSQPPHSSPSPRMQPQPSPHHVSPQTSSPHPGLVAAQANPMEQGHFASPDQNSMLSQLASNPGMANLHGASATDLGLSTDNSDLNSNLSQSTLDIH
Description: Cells were lysed with NP buffer [50 mM Tris (pH 8.0), 150 mM NaCl, 0.5% deoxycholate, 0.1% SDS, and 1.0% NP-40] containing 1× Protease Inhibitor Cocktail (Roche, Switzerland) at 4° C. with gentle rocking for 15 min. The supernatant was pre-cleared to block nonspecific binding with 50 μL protein A/G Agarose beads (Pierce Biotechnology) that had been pre-washed with NP buffer before use. Equal amounts of anti-E6 antibody (Abcam), anti-p300 antibody (Millipore), or IgG antibody (Cell Signaling) were added to the respective samples. After 4 hours incubation at 4° C., 50 μL pre-washed protein A/G-agarose beads were added to each tube and immunoprecipitation was performed by rocking overnight at 4° C. The immunoprecipitated complexes were washed with NP buffer and then eluted using 2×SDS sample buffer. Eluted sample and 10% of input were resolved by SDS-PAGE for Western blot analysis with anti-E6, anti-p300, or anti-V5 antibodies.

[7] = system: UMSCC47 cells; assay: Apoptosis (Annexin V FACS); assay type: cell-based, human; conditions: 10 μM, 24 hours, vs vehicle
Description: as §1

[8] = system: UMSCC47 cells; assay: Clonogenic survival (crystal violet); assay type: cell-based, human; conditions: UMSCC47 cells, 10 μM each agent, 14 days, vs vehicle
Description: as §1

[9] = system: p53; assay: Western blot of total and acetylated[K382] p53 levels; assay type: cell-based, human; conditions: 24 hours
Description: Whole cell lysates were mixed with Laemmli loading buffer, boiled, separated by SDS-PAGE, and transferred to a nitrocellulose membrane. Subsequently, immunoblot analyses were performed using antibodies specific to V5 (Invitrogen), p53 (sc-126, Santa Cruz Biotechnology, Santa Cruz, Calif.), or acetylated[[…]]-p53 (2525, Cell Signaling Technology). The signal was developed using the SuperSignal Western Blotting Kit (Pierce, Rockford, Ill.).

[10] = system: UMSCC74A cells; assay: Cell proliferation (MTT); assay type: cell-based, human
Description: as §1

[11] = UMSCC47 cells, 10 μM with cis-platinum 10 μM

Row | Substance | p53 activity, increase ([1]; 10 μM) [%] | effect on anti-proliferative efficacy of cis-platinum [2] | cell proliferation, single-agent [2] | effect on efficacy of cis-platinum on proliferation ([3]; IMR90 fibroblasts, 10 μM with cis-platinum 10 μM) | cell proliferation, single-agent ([3]; human normal IMR90 fibroblasts, 10 μM) | p21, miR-34a, and miR-200c expression ([4]; UMSCC47 cells) | expression of p300, p53, and p53-regulated genes ([4]; UMSCC74A) | tumorsphere formation, reduced by [5] [%] | association between E6 and p300 [6] | effect of cis-platinum on p53 activity [1, 11] | p53 activity ([1]; UMSCC74A (HPV-negative, p53 wildtype), 10 μM) | apoptosis, enhanced by [7] [%] | clonogenic survival, reduction/inhibition [8] [%] | effect of cis-platinum on p53 accumulation and acetylation [9, 11] | acetylated p53 levels ([9]; UMSCC47 cells, 10 μM) | p53 accumulation ([9]; UMSCC47 cells, 10 μM) | p53 levels ([9]; UMSCC74A, 10 μM) | cell proliferation, single-agent ([10]; HPV-negative UMSCC74A cells, 10 μM) | effect on efficacy of cis-platinum on proliferation ([10]; UMSCC74A cells, 10 μM with cis-platinum 10 μM)
1 | XELA*RAADQ-NH2 [CH1iB-mut] | 14 | no effect | no effect |  |  |  |  |  |  |  |  |  |  |  |  |  |  |  | 
2 | XELA*RALDQ-NH2 [CH1iB] | 71 | potentiated | inhibited the proliferation | did not augment | no effect | modest but significant increase | unchanged | 20 | reduced | potentiated | did not modulate | 353 | 35 | potentiated | enhanced | enhanced | did not modulate | no effect | did not augment
